Here are results for 18 compounds from patent publication US5103014A, “Certain 3,3'-[[[(2-phenyl-4-thiazolyl)methoxy]phenyl]methylene]dithiobis-propano ic acid derivatives” (American Home Products Corporation, priority 1990, dated 1992).

Read-outs that look alike come from different tables or passages of the source.

For experiment [1], the target named is T1, LTD4 (contraction of isolated guinea pig trachea) (Cavia porcellus, UniProt Q2NNR5).
T1 construct: from tissue; host or cells: isolated tracheal rings of male Hartley guinea pigs
T1 sequence (Q2NNR5 1-340): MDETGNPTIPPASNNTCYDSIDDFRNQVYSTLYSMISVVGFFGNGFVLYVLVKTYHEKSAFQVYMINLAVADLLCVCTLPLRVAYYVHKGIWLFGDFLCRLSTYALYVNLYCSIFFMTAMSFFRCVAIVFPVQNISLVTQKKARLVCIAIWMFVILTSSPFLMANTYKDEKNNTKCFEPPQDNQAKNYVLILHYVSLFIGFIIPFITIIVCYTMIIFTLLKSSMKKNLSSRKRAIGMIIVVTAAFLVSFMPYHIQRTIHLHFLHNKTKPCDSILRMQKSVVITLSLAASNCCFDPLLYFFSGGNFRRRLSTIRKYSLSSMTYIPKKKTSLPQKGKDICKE
The experiment in a line: Isolated guinea pig trachea assay, LTD4 antagonist activity. The settings on record: read-out: pKB ± S.E. (converted). The class given is cell-based. How it is done: The compounds of the invention are tested in the isolated guinea pig trachea assay to assess their LTD4 antagonist activity. Male Hartley guinea pigs (350-400 g) are euthanized by a blow to the head, the neck is opened and the trachea removed. The trachea is maintained in aerated physiological salt solution, cleared of connective tissue and fat and cut into rings approximately 2 mm in width (usually containing two cartilaginous segments per ring). Two pieces of silk suture are then passed through the lumen of the tracheal ring and are tied around the cartilage, one on each side of the trachealis muscle. The tracheal ring is suspended between a glass hook and a force displacement transducer in a 10 ml organ bath for measurement of isometric tension. Tissues are maintained at 37° C. in aerated (95% O2 /5% CO2) physiological salt solution of the following composition: […] The tracheal rings are maintained at 2 g resting tension and equilibrated for 45 minutes (with frequent washing and readjustment of resting tension). The tracheal rings are first contracted by the addition of carbachol (3×10^-6 M), to determine tissue responsiveness and establish a reference contraction. On attainment of a stable level of contraction (approximately 30 minutes), the tissues are washed several times until baseline tension has been restored and then re-equilibrated for 30 minutes. The tissues are then incubated for 45 minutes with a test antagonist (either 1×10^-6 M or 1×10^-5 M) or 10 μl of an appropriate solvent control (control, non-treated). One tissue in each group serves as the control. Twenty minutes prior to the construction of the LTD4 cumulative concentration-response curve, L-[…]×10^-2 M final bath concentration) is added to inhibit bioconversion of LTD4 to LTE4. Only one LTD4 concentration-response curve is constructed in each tissue. All responses to LTD4 are calculated as a percentage of the reference contraction to carbachol. LTD4 antagonist activity is determined by comparison of the concentration response curves of LTD4 in the presence and absence of antagonist. Assessment of the relative rightward shift of the antagonist treated curve relative to the solvent (control) treated tissue is calculated as a concentration ratio (Eq. A) and used in subsequent calculations to derive an antagonist pKB value (Eqs B&C). In the event that the maximum response to LTD4 is depressed, the EC50 for that particular curve is determined, an "apparent" pKB reported, and the compound reported as "not-competitive."

For experiment [2], the system named is 5,12-diHETE synthesis by rat glycogen-elicited polymorphonuclear leukocytes. The experiment in a line: Inhibition of 5,12-diHETE synthesis by rat glycogen-elicited polymorphonuclear leukocytes. As to conditions: Leukocyte, 10 μM, rat PMN. The class given is cell-based. How it is done:
This is especially true with respect to 5,12-diHETE, which is also denoted as LTB4 [see Ford-Hitchinson, J. Roy. Soc. Med., 74, 831 (1981)]. The assay of this Example measures the ability of the compounds of the invention to inhibit the synthesis of 5,12-diHETE by rat glycogen-elicited polymorphonuclear leukocytes.
(§1) Peritoneal PMN are obtained from female Wistar rats (150-250 g) that received an i.p. injection of 6% glycogen (10 ml). After 24 hours, rats are killed by CO2 asphyxiation and peritoneal cells are harvested by peritoneal lavage using Ca^++ and Mg^++ free Hanks' balanced salt solution (HBSS). The peritoneal exudate is centrifuged at 400 g for 10 minutes. After centrifugation, the lavaged fluid is removed and the cell pellet is resuspended in HBSS containing Ca^++ and Mg^++ and 10 mM L-cysteine at a concentration of 2×10^7 cells/ml. To 1 ml portions of cell suspension, test drugs or vehicle are added and incubated at 37° C. for 10 minutes. Following this preincubation, the calcium ionophore (10 μM), A23187, is added together with 0.5 μCi [^14 C] arachidonic acid and further incubated for 10 minutes. The reaction is stopped by the addition of ice cold water (3 ml) and acidification to pH 3.5. Lipoxygenase products are then extracted twice into diethyl ether. The pooled ether extracts are evaporated to dryness under nitrogen and the residue is redissolved in a small volume of methanol and spotted on aluminum backed pre-coated thin layer chromatographic plates. The samples are then co-chromatographed with authentic reference 5,12-diHETE in the solvent system-hexane:ether:acetic acid (50:50:3). After chromatography, the areas associated with 5,12-diHETE standard are identified by autoradiography, cut out and quantitated by liquid scintillation.
Results are expressed as the 50% Inhibitory concentration, or as percent inhibition at a given.

Experiment [3] deals with TxB2 synthesis (cyclooxygenase). Description: Inhibition of synthesis of cyclooxygenase oxidation product TxB2 (rat polymorphonuclear leukocytes). The class given is cell-based. The settings on record: Leukocyte, 10 μM, rat PMN. How it is done: as §1
The procedure of Example 17 is also employed for the determination of the ability of the compounds of the invention to inhibit the synthesis of the arachidonic acid cyclooxygenase oxidation product TxB2.
In this assay, the procedure of Example 17 is carried out as described. However, in order to determine cyclooxygenase activity, the samples are cochromatographed with authentic reference TxB2 in the solvent system ethyl acetate:formic acid (80:1) and the upper phase of ethyl acetate:isoctane:acetic acid:water (110:50:20:100). After chromatography, the areas associated with TxB2 standard are identified by autoradiography, cut out and quantitated by liquid scintillation techniques.
The results are calculated as in Example 12 and presented below: […]

Experiment [4] has as its system LTD4 induced bronchoconstriction. Description: In vivo inhibition of LTD4 induced bronchospasm in guinea pigs (exogenously administered leukotrienes). On the set-up: species or system guinea pig. As to conditions: Cavia porcellus, 10 minutes before induction of bronchospasm (LTD4).
For experiment [5], the system named is acute inflammatory response (carrageenan paw edema). The experiment in a line: Rat carrageenan paw edema assay. It counts as in vivo. The settings on record: po; for inhibition in vivo at 50 mg/kg: 50 mg/kg peroral, 1 hour prior to carrageenan, edema at 3 hours. How it is done:
The compounds of the invention are tested in the rat carrageenan paw edema assay to determine their ability to inhibit the acute inflammatory response. 140-180 gm male Sprague-Dawley rats, in groups of 6 animals, are injected subcutaneously in the right paw with 0.1 ml of 1% carrageenan at zero time. Mercury plethysmographic readings (ml) of the paw are made at zero time and 3 hours later. Test compounds are suspended or dissolved in 0.5% methylcellulose and given perorally 1 hour prior to carrageenan administration. The increase in paw volume (edema in ml.) produced by the carrageenan is measured. […] Unpaired Student's t-test is used to determine statistical significance.
For orientation: The carrageenan paw model is a standard test of acute inflammation.

The mark [6] stands for this setting: antagonist concentration 1 × 10^-6 M.
Setting [7] is: antagonist concentration 1 × 10^-5 M.

With `CN(C)C(=O)CCSC(SCCC(=O)N(C)C)c1cccc(OCc2csc(-c3ccccc3)n2)c1` [Example 14, 3,3'-[[[3-[(2-Phenyl-4-thiazolyl)methoxy]phenyl]methylene]dithio]bis[N,N-dimethylpropanamide]], the Kb in experiment [1] (setting [6]) is 324 nM. As a reminder, the inhibition is the drop in the measured response relative to a control, in per cent. Low values mean little suppression, high ones strong suppression. Broadly, the inhibition in vivo is the change of the read-out against control, counted positive when it falls. Lower therefore signals a weak effect. Take `Cc1ccc(S(=O)(=O)NC(=O)c2cccc(OCc3csc(-c4ccccc4)n3)c2)cc1` [Example 8, N-[(4-Methylphenyl)sulfonyl]-3-[(2-phenyl-4-thiazolyl)methoxy]benzamide]: the inhibition at 10 µM worked out at 55% in experiment [2] and 44% in experiment [3]. The same compound displayed an inhibition in vivo at 25 mg/kg in experiment [4] (intraduodenal, intraduodenally) of 62%. The inhibition in vivo at 50 mg/kg in experiment [5] was found to be 51%. In experiment [4] (intraduodenal, intraduodenally), `O=S(=O)(Nc1cccc(OCc2csc(-c3ccccc3F)n2)c1)C(F)(F)F` [Example 9C, 1,1,1-Trifluoro-N-[3-[[2-(2-fluorophenyl)-4-thiazolyl]methoxy]phenyl]methanesulfonamide] gave an inhibition in vivo at 25 mg/kg of 73%. In experiment [4] (po, 10 mg/kg, intragastrically), this compound registered an inhibition in vivo at 10 mg/kg of 89%. For the same compound, 50 mg/kg produced 53% inhibition in vivo in experiment [5]. Take `O=S(=O)(Nc1cccc(OCc2cccc(-c3ccccc3)n2)c1)C(F)(F)F` [Example 7, 1,1,1-Trifluoro-N-[3-[(2-phenyl-6-pyridinyl)methoxy]phenyl]methanesulfonamide]: the inhibition in vivo at 25 mg/kg in experiment [4] (intraduodenal, intraduodenally) came out at 68%.

Take `O=S(=O)(Nc1cccc(OCc2csc(-c3ccc(C(F)(F)F)cc3)n2)c1)C(F)(F)F` [Example 9E, 1,1,1-Trifluoro-N-[3-[[2-(4-trifluoromethylphenyl)-4-thiazolyl]methoxy]phenyl]-methanesulfonamide]: the inhibition in vivo at 50 mg/kg in experiment [5] was found to be 66%.

The compound `O=S(=O)(Nc1ccccc1OCc1csc(-c2ccccc2)n1)C(F)(F)F` [Example 4, 1,1,1-Trifluoro-N-[2-[(2-phenyl-4-thiazolyl)methoxy]phenyl]methanesulfonamide] returned an inhibition in vivo at 25 mg/kg in experiment [4] (intraduodenal, intraduodenally) of 10%. `O=S(=O)(Nc1cccc(OCc2csc(-c3cccc(C(F)(F)F)c3)n2)c1)C(F)(F)F` [Example 9F, 1,1,1-Trifluoro-N-[3-[[2-(3-trifluoromethylphenyl)-4-thiazolyl]methoxy]phenyl]methanesulfonamide] returned an inhibition in vivo at 25 mg/kg in experiment [4] (intraduodenal, intraduodenally) of 50%. The same compound showed an inhibition in vivo at 50 mg/kg in experiment [5] of 23%. Regarding `CN(C)C(=O)CCSC(SCCC(=O)O)c1cccc(OCc2csc(-c3ccccc3)n2)c1` (stereo not drawn) [Example 16, 3-[[[[3-(Dimethylamino)-3-oxopropyl]thio][3-[(2-phenyl-4-thiazolyl)methoxy]phenyl]methyl]thio]propanoic acid], the Kb in experiment [1] (setting [6]) is 72.4 nM. `CCN(CC)C(=O)N(C)CC(O)c1cccc(OCc2csc(-c3ccccc3)n2)c1` (stereo not drawn) [Example 6, N,N-Diethyl-N'-[2-hydroxy-2-[3-(2-phenyl-4-thiazolylmethoxy)phenyl]ethyl]-N-methylurea] gave an inhibition in vivo at 25 mg/kg in experiment [4] (intraduodenal, intraduodenally) of 47%. The inhibition in vivo at 50 mg/kg in experiment [5] worked out at 57%. In experiment [4] (intraduodenal, intraduodenally), `O=S(=O)(Nc1cccc(OCc2csc(-c3c(F)cccc3F)n2)c1)C(F)(F)F` [Example 9D, 1,1,1-Trifluoro-N-[3-[[2-(2,6-difluorophenyl)-4-thiazolyl]methoxy]phenyl]methanesulfonamide] returned an inhibition in vivo at 25 mg/kg of 72%. In experiment [5], at 50 mg/kg the inhibition in vivo was 37%. `O=S(=O)(Nc1cccc(OCc2csc(Cc3ccccc3)n2)c1)C(F)(F)F` [Example 9I, 1,1,1-Trifluoro-N-[3-[[2-(benzyl)-4-thiazolyl]methoxy]phenyl]methanesulfonamide]: the inhibition in vivo at 25 mg/kg came out at 94% in experiment [4] (intraduodenal, intraduodenally) and 47% in experiment [4] (po, intragastrically). Besides, the inhibition in vivo at 50 mg/kg in experiment [5] is 22%. As for `COC(=O)CCSC(SCCC(=O)OC)c1cccc(OCc2csc(-c3ccccc3)n2)c1` [Example 12], the Kb in experiment [1] (setting [7]) is 724 nM. As to `c1ccc(-c2nc(COc3cccc(Cc4nnn[nH]4)c3)cs2)cc1` [Example 5, 5-[[3-(2-Phenyl-4-thiazolylmethoxy)phenyl]methyl]-1H-tetrazole], at 25 mg/kg the inhibition in vivo in experiment [4] (intraduodenal, intraduodenally) was 69%. On to `COC(=O)CCSC(SCCC(=O)N(C)C)c1cccc(OCc2csc(-c3ccccc3)n2)c1` (stereo not drawn) [Example 13, 3-[[[[3-(Dimethylamino)-3-oxopropyl]thio][[(2-phenyl-4-thiazolyl)methoxy]phenyl]methyl]thio]propanoic acid methyl ester], for which, in experiment [1] (setting [6]), the Kb is 44.7 nM. For `Cc1oc(-c2ccccc2)nc1COc1cccc(NS(=O)(=O)C(F)(F)F)c1` [Example 2, 1,1,1-Trifluoro-N-[3-[(5-methyl-2-phenyl-4-oxazolyl)methoxy]phenyl]methanesulfonamide], at 25 mg/kg the inhibition in vivo in experiment [4] (intraduodenal, intraduodenally) was 56%. Also, at 50 mg/kg the inhibition in vivo in experiment [5] was 18%. Consider `COc1ccc(-c2nc(COc3cccc(NS(=O)(=O)C(F)(F)F)c3)c(C)o2)cc1` [Example 1, 1,1,1-Trifluoro-N-[3-[[2-(4-methoxyphenyl)-5-methyl-4-oxazolyl]methoxy]phenyl]methanesulfonamide], for which 25 mg/kg produced 24% inhibition in vivo in experiment [4] (intraduodenal, intraduodenally). The compound further gave an inhibition in vivo at 50 mg/kg in experiment [5] of 34%. Turning to `O=C(O)CCSC(SCCC(=O)O)c1cccc(OCc2csc(-c3ccccc3)n2)c1` [Example 15, 3,3'-[[3-[(2-Phenyl-4-thiazolyl)methoxy]phenyl]methylene]dithiobis[propanoic acid]], in experiment [1] (setting [7]), the Kb is 912 nM. In general, ED50 refers to the dose that gives a 50% effect, or the effect in half of the subjects. `COc1ccc2c(c1)c(CC(=O)O)c(C)n2C(=O)c1ccc(Cl)cc1` [Indomethacin, reference compound]: the median effective dose (ED50) in experiment [5] (3 h, read-out: Oral ED50 (95% C.L.)) came to 3.7 mg/kg.
